According to patent US12473295B2, “Substituted straight chain spiro derivatives” (Janssen Pharmaceutica NV, priority 2019, dated 2025):
Where a name gives a salt, the structure may show the parent alone.

Tested on: iCell Cardiomyocytes2
Test: Ca2+-fluorescence assay in human pluripotent stem cell-derived cardiomyocytes (CTCM human), iCell Cardiomyocytes2
Type: cell-based
Design: key: Green: No concern; Yellow: Low concern; Red: High concern; Black: Very high concern due to arrhythmic events
Conditions: 30 min
Experimental: 7) Cardio-Electrophysiological Effects of the Testing Compounds in Synchronously Beating Human Pluripotent Stem Cell-Derived Cardiomyocytes (hSC-CMs) Using a Ca^2+-Fluorescence Assay (CTCM Human)
Compounds were tested in the 96-well plates
Compounds were tested at 0.1 μM, 0.2 μM, 0.5 μM, 1 μM, 2.5 μM and 5 μM (n=4 per dose) on Cor.4U 9-Cardiomyocytes or on iCell® Cardiomyocytes2
Alternatively, compounds were tested at 0.1 μM, 0.3 μM; 1 μM, 3 μM, 10 μM and 30 μM (n=4 per dose) mostly on iCell® Cardiomyocytes2
Dimethylsulfoxide (DMSO). The solutions of the compound in DMSO or its solvent (final concentration of 0.1% DMSO; n=8)
Preparation of Test Article and Controls
Tested compounds were dissolved in DMSO at 1000-fold the intended concentrations. A compound “mother-plate” was made, containing the test compounds and positive and negative controls at 1000-fold the final concentrations. At the experiment day, these stock solutions were diluted with Tyrode (Sigma), supplemented with 10 mM HEPES (Gibco), to 2-fold the intended concentration (in round bottom compound plates). Final DMSO concentration in test solutions and vehicle control was 0.1%.
Second line hSC derived cardiomyocyte called iCell®, Cardiomyocytes2 were purchased from FUJIFILM Cellular Dynamics (USA). The experiments with test drugs are carried out 5 to 7 days after plating the cells onto the plate to have a living, beating monolayer of hiPSC-derived cardiomyocytes. The beating monolayer in 96-well-plates are normally taken from 2 Vials of frozen iCell) Cardiomyocytes2 (≈5 million cells/vial), which will be plated onto […] 96-well plates (≈50K/well).
Before Start of Experiment
At least one hour before the start of the experiments the normal cell medium was replaced with Tyrode solution with Calcium dye (see below).
Cal 520 dye (AAT Bioquest) was dissolved in 11 ml of Tyrode supplemented with 10 mM HEPES and warmed up to 37° C. before adding to the cells.
35 μl cell culture medium was removed from each well and replaced with 35 μl of pre-warmed Cal 520 dye solution and cell plate was incubated for 45 min at 37° C./5% CO2. Cells were incubated for 5 min at 37° C.
Spontaneous electrical activity is recorded, using Cal520™ (AAT Bioquest) calcium fluorescence-dye signaling. This dye integrates the total intracellular calcium activity over the whole well. A bottle of Cal520 dye (50 μg, MW: 1103/mol) is dissolved with 50 μl DMSO as a stock solution of 0.9 mM. 50 μL of the stock solution of the dye was added to 10 ml Tryodes solution to have dye concentration of 4.5 μM. Subsequently, 35 μl of this dye solution was added into each well, to have a final dye concentration of 1.58 μM. The current dye protocol on this CTCM human assay was established recently (Ivan Kopljar et al, Journal of Pharmacological and toxicological methods 2018. 91: 80-86; Lu et al., Tox Sci 2019. 170 (2): 345-356).
Fluorescent signals (Ca^2+ transient morphology) were measured using the Functional Drug Screen System (FDSS/μCell; Hamamatsu, Japan) and the recordings were subsequently analyzed off-line, using appropriate software e.g. Notocord.
The cell plate was loaded into the FDSS/μCell for a test run: Ca^2+ transients were measured for 4 minutes to check for synchronous beating of the cardiomyocytes in each well. All 96 wells were measured simultaneously (sampling interval: 0.06 s, short exposure time: 10 ms; excitation wavelength 480 nm; emission wavelength 540 nm; FDSS/μCell warmed to 37° C.).
During the compound addition step, 100 μl of the respective double-concentrated test solutions was pipetted into each well simultaneously.
Data were analyzed off-line using appropriate software e.g. Notocord-Hem (version 4.3).
The following parameters of the Ca^2′ transient morphology were measured: • beat rate (BR) • amplitude of the Ca^2+ transient (Amp), • CTD90: Ca^2+ transient duration at 90% (time to 90% of the initial base value). […]

CCN(C(=O)c1cc(F)ccc1Oc1nncnc1N1CCC2(C1)CN([C@H](CCCN(C)CCC(=O)N(C)C)C(C)C)C2)C(C)C [Compound 246, (R)-2-((5-(2-(6-((3-(dimethylamino)-3-oxopropyl)(methyl)amino)-2-methylhexan-3-yl)-2,6-diazaspiro[3.4]octan-6-yl)-1,2,4-triazin-6-yl)oxy)-N-ethyl-5-fluoro-N-isopropylbenzamide formate]
Green: Color @ 0.1 μM (hazard score) (iCell Cardiomyocytes2, 0.1 μM) | Color @ 0.2 μM (hazard score) (iCell Cardiomyocytes2, 0.2 μM) | Color @ 0.5 μM (hazard score) (iCell Cardiomyocytes2, 0.5 μM) | Color @ 1 μM (hazard score) (iCell Cardiomyocytes2, 1 μM) | Color @ 2.5 μM (hazard score) (iCell Cardiomyocytes2, 2.5 μM) | Color @ 5 μM (hazard score) (iCell Cardiomyocytes2, 5 μM)
